Reference: the NIST ThermoML archive (doi:10.1021/je500886a)

Test: mn = molality of the nth substance listed, in mol/kg
Conditions: 101 kPa, Liquid

OC[C@H]1O[C@@](CO)(O[C@H]2O[C@H](CO)[C@@H](O)[C@H](O)[C@H]2O)[C@@H](O)[C@@H]1O [D-sucrose] + O
Conditions | mass density, 288.15 K [kg/m3] | mass density, 298.15 K [kg/m3] | mass density, 308.15 K [kg/m3] | mass density, 318.15 K [kg/m3] | viscosity, 288.15 K [mPa·s] | viscosity, 298.15 K [mPa·s] | viscosity, 308.15 K [mPa·s] | viscosity, 318.15 K [mPa·s]
m1 = 0.0482 | 1005.4 | 1003.28 | 1000.26 | 996.41 | – | – | – | –
m1 = 0.05054 | – | – | – | – | 1.198 | 0.934 | 0.751 | 0.621
m1 = 0.06821 | 1007.96 | 1005.82 | 1002.79 | 998.92 | – | – | – | –
m1 = 0.06969 | – | – | – | – | 1.221 | 0.951 | 0.766 | 0.632
m1 = 0.08888 | 1010.58 | 1008.42 | 1005.37 | 1001.49 | – | – | – | –
m1 = 0.09107 | – | – | – | – | 1.242 | 0.969 | 0.78 | 0.645
m1 = 0.1095 | 1013.17 | 1010.99 | 1007.92 | 1004.02 | – | – | – | –
m1 = 0.1098 | – | – | – | – | 1.264 | 0.984 | 0.793 | 0.654
m1 = 0.1286 | 1015.55 | 1013.35 | 1010.27 | 1006.35 | – | – | – | –
m1 = 0.1293 | – | – | – | – | 1.286 | 1.001 | 0.805 | 0.666
m1 = 0.1495 | 1018.13 | 1015.9 | 1012.8 | 1008.87 | – | – | – | –
m1 = 0.1497 | – | – | – | – | 1.31 | 1.019 | 0.819 | 0.675

O=C[C@H](O)[C@@H](O)[C@H](O)CO [D-xylose] + O
Conditions | mass density, 288.15 K [kg/m3] | mass density, 298.15 K [kg/m3] | mass density, 308.15 K [kg/m3] | mass density, 318.15 K [kg/m3] | viscosity, 288.15 K [mPa·s] | viscosity, 298.15 K [mPa·s] | viscosity, 308.15 K [mPa·s] | viscosity, 318.15 K [mPa·s]
m1 = 0.0491 | 1001.82 | 999.72 | 996.71 | 992.87 | – | – | – | –
m1 = 0.04924 | – | – | – | – | 1.161 | 0.904 | 0.73 | 0.605
m1 = 0.06784 | – | – | – | – | 1.167 | 0.911 | 0.735 | 0.609
m1 = 0.07084 | 1002.99 | 1000.89 | 997.87 | 994.02 | – | – | – | –
m1 = 0.08985 | 1004.02 | 1001.9 | 998.88 | 995.03 | – | – | – | –
m1 = 0.09005 | – | – | – | – | 1.176 | 0.917 | 0.74 | 0.612
m1 = 0.1038 | – | – | – | – | 1.183 | 0.921 | 0.743 | 0.615
m1 = 0.1144 | 1005.32 | 1003.21 | 1000.16 | 996.31 | – | – | – | –
m1 = 0.1285 | – | – | – | – | 1.19 | 0.929 | 0.749 | 0.62
m1 = 0.1303 | 1006.16 | 1004.04 | 1000.99 | 997.13 | – | – | – | –
m1 = 0.1485 | 1007.12 | 1005 | 1001.94 | 998.07 | – | – | – | –
m1 = 0.151 | – | – | – | – | 1.201 | 0.936 | 0.754 | 0.624

OC[C@@H](O)[C@@H](O)[C@H](O)[C@@H](O)CO [D-sorbitol] + O
Conditions | mass density, 288.15 K [kg/m3] | mass density, 298.15 K [kg/m3] | mass density, 308.15 K [kg/m3] | mass density, 318.15 K [kg/m3] | viscosity, 288.15 K [mPa·s] | viscosity, 298.15 K [mPa·s] | viscosity, 308.15 K [mPa·s] | viscosity, 318.15 K [mPa·s]
m1 = 0.0479 | – | – | – | – | 1.169 | 0.914 | 0.736 | 0.609
m1 = 0.05068 | 1002.38 | 1000.23 | 997.2 | 993.33 | – | – | – | –
m1 = 0.06467 | – | – | – | – | 1.183 | 0.921 | 0.742 | 0.614
m1 = 0.07063 | 1003.63 | 1001.46 | 998.41 | 994.53 | – | – | – | –
m1 = 0.08656 | – | – | – | – | 1.197 | 0.932 | 0.75 | 0.62
m1 = 0.09024 | 1004.83 | 1002.65 | 999.59 | 995.7 | – | – | – | –
m1 = 0.1057 | 1005.77 | 1003.58 | 1000.51 | 996.61 | – | – | – | –
m1 = 0.106 | – | – | – | – | 1.21 | 0.942 | 0.756 | 0.624
m1 = 0.1249 | – | – | – | – | 1.226 | 0.951 | 0.765 | 0.631
m1 = 0.13 | 1007.24 | 1005.03 | 1001.95 | 998.04 | – | – | – | –
m1 = 0.1451 | – | – | – | – | 1.239 | 0.959 | 0.772 | 0.635
m1 = 0.1465 | 1008.23 | 1006.01 | 1002.93 | 999 | – | – | – | –

OC[C@@H](O)[C@@H](O)[C@H](O)[C@H](O)CO [D-mannitol] + O
Conditions | mass density, 288.15 K [kg/m3] | mass density, 298.15 K [kg/m3] | mass density, 308.15 K [kg/m3] | mass density, 318.15 K [kg/m3] | viscosity, 288.15 K [mPa·s] | viscosity, 298.15 K [mPa·s] | viscosity, 308.15 K [mPa·s] | viscosity, 318.15 K [mPa·s]
m1 = 0.04909 | 1002.3 | 1000.12 | 997.07 | 993.22 | – | – | – | –
m1 = 0.05269 | – | – | – | – | 1.176 | 0.918 | 0.74 | 0.611
m1 = 0.06889 | 1003.56 | 1001.34 | 998.27 | 994.41 | – | – | – | –
m1 = 0.07011 | – | – | – | – | 1.189 | 0.927 | 0.747 | 0.617
m1 = 0.09002 | 1004.91 | 1002.62 | 999.54 | 995.65 | – | – | – | –
m1 = 0.09107 | – | – | – | – | 1.203 | 0.936 | 0.754 | 0.621
m1 = 0.1097 | – | – | – | – | 1.217 | 0.945 | 0.761 | 0.627
m1 = 0.1134 | 1006.38 | 1004.04 | 1000.93 | 997.03 | – | – | – | –
m1 = 0.1266 | 1007.19 | 1004.82 | 1001.71 | 997.8 | – | – | – | –
m1 = 0.1293 | – | – | – | – | 1.23 | 0.955 | 0.765 | 0.633
m1 = 0.1469 | 1008.45 | 1006.03 | 1002.9 | 998.97 | – | – | – | –
m1 = 0.15 | – | – | – | – | 1.246 | 0.964 | 0.774 | 0.639
